Laboratory results from BindingDB's records for doi:10.1021/jm00039a013 (Pfizer, 1994).

Experiment: Inhibitory activity against acetylcholinesterase in mice at the dose of 4.8 mg/kg via intraperitoneal administration

CCCCCCCNC(=O)Oc1ccc2c(c1)[C@]1(C)CCN(C)[C@@H]1N2C [(3aS,8aR)-1,3a,8-trimethyl-1H,2H,3H,3aH,8H,8aH-pyrrolo[2,3-b]indol-5-yl N-heptylcarbamate]
IC50: 148 nM
